Article PMC6017873 (Molecules : A Journal of Synthetic Chemistry and Natural …, 2018)
pIC50: −log10 of the molar value. Values joined by “and” are separate entries in the source; they are usually repeats but may differ in a detail not shown here. Identical values can stand only once.

Columns and labels:
[1] = system: SK-MEL-28 cells; experiment: Acetylation of sirtuin targets by Western blot, SK-MEL-28; format: cell-based, human; details: SK-MEL-28, 5 and 50 µM, 8 h
Experimental: Figure 5 Effect of eurochevalierine on the acetylation status of sirtuin targets. SK-MEL-28, U-373, and A-549 cells were treated with 5 and 50 µM eurochevalierine (EU) for 8 h. Acetylation of histone H4 (AcH4), histone H3 at lysine 56 (AcH3K56), and α-tubulin (Ac α-tubulin) was analyzed via Western blot. β-actin and histone H1 were used as loading controls for the analysis of total and acid extracts, respectively. SAHA (S, 1 µM) was used as a reference HDAC inhibitor. Blots are representative of three independent experiments.
Total proteins were extracted using the MPER® reagent (Thermo-scientific, Erembodegem-Aalst, Belgium) supplemented by 1× protease inhibitor cocktail (Complete EDTA-free, Roche, Prophac, Luxembourg, Luxembourg) according to manufacturer’s instructions. Histones were extracted as previously described. Western blots were carried out as previously reported.
Corresponding secondary antibodies were from Santa Cruz Biotechnology.

[2] = biological target: T1, SIRT1 (Homo sapiens, UniProt Q96EB6); experiment: In vitro SIRT1 activity assay; details: IC50 SIRT1, mean ± SD of three independent experiments
T1 sequence (Q96EB6 1-747): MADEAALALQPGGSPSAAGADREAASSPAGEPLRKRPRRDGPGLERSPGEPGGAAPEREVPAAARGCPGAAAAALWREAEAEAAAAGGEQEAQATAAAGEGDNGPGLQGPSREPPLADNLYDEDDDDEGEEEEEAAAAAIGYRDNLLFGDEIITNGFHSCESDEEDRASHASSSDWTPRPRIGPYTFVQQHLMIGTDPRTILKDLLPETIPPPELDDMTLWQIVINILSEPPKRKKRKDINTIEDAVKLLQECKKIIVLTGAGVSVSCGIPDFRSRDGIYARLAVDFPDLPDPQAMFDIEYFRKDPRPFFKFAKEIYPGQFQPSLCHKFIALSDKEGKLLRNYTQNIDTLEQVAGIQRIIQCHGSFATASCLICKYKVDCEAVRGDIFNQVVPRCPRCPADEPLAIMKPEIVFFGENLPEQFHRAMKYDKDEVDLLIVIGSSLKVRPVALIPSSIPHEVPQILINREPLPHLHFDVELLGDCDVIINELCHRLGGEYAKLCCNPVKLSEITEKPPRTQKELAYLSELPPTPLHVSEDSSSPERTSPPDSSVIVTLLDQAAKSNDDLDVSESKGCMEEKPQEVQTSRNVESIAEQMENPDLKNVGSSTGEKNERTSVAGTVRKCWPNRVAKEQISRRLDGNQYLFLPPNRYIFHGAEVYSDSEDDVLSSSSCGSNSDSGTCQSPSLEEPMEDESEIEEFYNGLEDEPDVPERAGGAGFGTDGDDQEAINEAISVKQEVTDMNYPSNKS

[3] = system: primary human CD34+ stem/progenitor cells; experiment: Growth and viability of primary CD34+ stem/progenitor cells; format: cell-based
Experimental: Figure 7 Only very high concentrations of eurochevalierine impair the growth of healthy primary human CD34^+ stem/progenitor cells. CD34^+ cells were incubated with the indicated concentrations of eurochevalierine and cell growth (a) and viability (b) were assessed after 72 h of treatment. Results correspond to the mean ± SD of three independent experiments with * and ** indicate p < 0.05 and p < 0.01 versus control.
Primary CD34^+ progenitor/stem cells were isolated from human umbilical cord blood obtained from the Clinique Bohler (Hôpitaux Robert Schuman, Luxembourg, Luxembourg) with the written informed consent of parents with the approval of the National Research Ethics Committee of Luxembourg. First, mononucleated cells were isolated by Ficoll™ (GE Healthcare, Roosendaal, The Netherlands) density gradient centrifugation. CD34^+ cells were then purified out from mononucleated cells using magnetic cell sorting following the manufacturer’s instructions (MACS Miltenyi, Utrecht, The Netherlands).
High purity CD34^+ cells were treated after 3 days of amplification in Stemline® II Hematopoietic Stem cell Expansion Medium (Sigma) supplemented with 1% antibiotic-antimycotic (BioWhittaker®, Lonza, Verviers, Belgium), 4 mM L-glutamine (BioWhittaker®), 50 ng/mL stem cell factor (ReliaTech, Wolfenbüttel, Germany), and 10 ng/mL interleukin 3 (Reliatech, Wolfenbüttel, Germany). Other cell models were cultured in RPMI1640 (BioWhittaker®) supplemented with 10% heat-inactivated fetal calf serum (BioWhittaker®) and 1% antibiotic-antimycotic. Cell lines were cultured at 37 °C in a humid atmosphere and at 5% CO2.
PBMCs and CD34^+ cells were processed through a semi-automated image-based cell analyzer (Cedex XS Innovatis, Roche, Luxembourg), which provides information about cell concentration and viability based on the Trypan Blue exclusion method.

[4] = system: A-549 cells; experiment: Sub-G1 fraction by PI flow cytometry, A-549; format: cell-based, human; details: A-549, 50 µM, 72 h
Experimental: Figure 2 Effect of eurochevalierine on cell cycle distribution. Cells were treated with 50 µM eurochevalierine for 72 h and then stained with propidium iodide (PI), and DNA content was measured by flow cytometry. (a) Cell cycle distribution profile in A-549 cells. Results of three independent experiments are represented on the same graph. (b) Quantification of the number of cells in sub-G1 fraction as a percentage of the total cell population. Results are expressed as mean ± SD of at least three independent experiments.
Cells were collected, fixed, and stained with the APO AF TUNEL detection kit (BD, Erembodegem, Belgium) allowing analysis of both apoptosis and cell cycle at the same time. The experiment was conducted accordingly to the procedure of the manufacturer. Data were obtained through flow cytometry with a Cell Lab Quanta apparatus (Analis, Suarlee, Belgium).

[5] = biological target: T2, SIRT3 (Homo sapiens, UniProt Q9NTG7); experiment: In vitro SIRT3 activity assay; format: biochemical
T2 sequence (Q9NTG7 1-399): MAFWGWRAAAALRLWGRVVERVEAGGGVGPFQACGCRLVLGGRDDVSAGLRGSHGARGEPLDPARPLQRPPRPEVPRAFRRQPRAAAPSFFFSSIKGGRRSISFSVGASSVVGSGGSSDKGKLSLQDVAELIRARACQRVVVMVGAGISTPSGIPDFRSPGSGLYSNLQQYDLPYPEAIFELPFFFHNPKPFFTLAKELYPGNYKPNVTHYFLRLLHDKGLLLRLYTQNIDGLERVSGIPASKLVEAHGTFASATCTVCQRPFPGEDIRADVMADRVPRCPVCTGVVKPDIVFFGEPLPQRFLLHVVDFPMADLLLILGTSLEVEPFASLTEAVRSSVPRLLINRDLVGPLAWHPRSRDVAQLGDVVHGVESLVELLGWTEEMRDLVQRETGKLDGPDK

In the case of `C=C(C)[C@@H]1CC[C@@H](C)[C@@]2(O)[C@@H]1C=C(C)[C@@H](OC(C)=O)[C@@H]2OC(=O)[C@H](CC(=O)c1ccccc1NC)NC=O` [Eurochevalierine, eurochevalierine], the “acetylation of sirtuin targets (AcH4, AcH3K56, Ac α-tubulin)” value [1] was “robust and dose-dependent increase”, the pIC50 [2] was ~5.00 and 5.01 and the “impact on CD34+ cell viability” value ([3]; 200 µM, 72 h) was “minor impact on cell viability”. For the same molecule, the pIC50 ([3]; Homo sapiens, 72 h, read-out: IC50 growth inhibition of CD34+ cells) was less than 3.70, the inhibition at 200 µM ([3]; Homo sapiens, 200 µM, 72 h, read-out: maximum growth inhibition of CD34+ cells) was roughly 30% and the “selectivity factor cancer cells versus normal proliferating CD34+ cells” value ([3]; IC50 in healthy cells (>200 µM) versus mean IC50 in cancer cells (28 µM)) was greater than 7. For the same molecule, the sub-G1 fraction [4] was “did not increase the sub-G1 fraction”, the “remaining SIRT3 enzymatic activity compared to the control set to 100%” value ([5]; at 100 µM) was 59% and the pIC50 ([5]; mean ± SD of three independent experiments) was less than 4.00.
